Data from patent US20120115793A1, “PEPTIDOMIMETIC MACROCYCLES” (Alleron Therapeutics, Inc, priority 2008, published 2012).
Where a SMILES comes first, the peptide text is derived from it. Bridges are numbered along the chain shown (N, C = ends). [ ]: non-standard residue; d: D form. S5 = C=CCCC[C@](C)(N)C(=O)O; Abu = CC[C@H](N)C(=O)O

System: Molt-4 cell line
Assay type: cell-based
Settings: 48 h
Experimental: Molt-4 cell line (ATCC catalog #CRL-1582) was grown in specific serum-supplemented media (RPMI-1640, Invitrogen catalog #72400) as recommended by ATCC. A day prior to the initiation of the study, cells were split at optimal cell density (2×10^5-5×10^5 cells/ml) to assure actively dividing cells. The next day, cells were washed twice in serum-free Opti-MEM media (Invitrogen, Catalog #51985) and cells were then plated at optimal cell density (10,000 cells/well) in 50 μl Opti-MEM media or Opti-MEM supplemented with 2%, 4% or 10% human serum (Bioreclamation, catalog #HMSRM) in 96-well white tissue culture plate (Nunc, catalog #136102).
For serum free experiment, peptidomimetic macrocycles were diluted from 2 mM stocks (100% DMSO) in sterile water to prepare 400 μM working solutions. The macrocycles and controls were diluted 10-fold first and then serially two-fold diluted in Opti-MEM in dosing plates to provide concentrations of between 1.2 and 40 μM. 50 μL of each dilution was then added to the appropriate wells of the test plate to achieve final concentrations of the polypeptides equal to between 0.6 to 20 μM. For studies using Opti-MEM supplemented with human serum (Bioreclamation, catalog #HMSRM), peptidomimetic macrocycles were diluted from 10 mM stocks (100% DMSO) in sterile water to prepare 2 mM working solutions. The peptide macrocycles and controls were diluted 10-fold first and then serially two-fold diluted in Opti-MEM in the presence of 2%, 4% or 10% of human serum to provide concentrations of the polypeptides equal to between 6.25 to 200 μM in dosing plates. 50 μL of each dilution was then added to the appropriate welts of the test plate to achieve final concentrations of the polypeptides equal to between 3.125 to 100 μM. Controls included wells without polypeptides containing the same concentration of DMSO as the wells containing the macrocycles, wells containing 0.1% Triton X-100 and wells containing no cells. Plates were incubated for 48 hours at 37° C. in humidified 5% CO2 atmosphere.
At the end of the incubation period, CellTiter-Glo assay was performed according to manufacturer's instructions (Promega, catalog #G7573) and luminescence was measured using Synergy HT Plate reader (BioTek).
The following macrocycles derived from the human MAML peptide sequences were tested in cell viability assays with the MOLT-4 tumor cell line: […]

SMILES	EC50
CC[C@H](C)[C@H](NC(=O)[C@H](CCCNC(=N)N)NC(=O)[C@H](CCCNC(=N)N)NC(=O)[C@H](CCCNC(=N)N)NC(=O)[C@H](CC(C)C)NC(=O)[C@H](C)NC(=O)[C@H](CCC(=O)O)NC(C)=O)C(=O)N[C@@]1(C)CCCC=CCCC[C@@](C)(C(=O)N[C@@H](Cc2c[nH]cn2)C(=O)N[C@@H](Cc2c[nH]cn2)C(=O)N[C@@H](CO)C(=O)N[C@H](C(N)=O)[C@@H](C)O)NC(=O)[C@H](C)NC(=O)[C@H](CS)NC(=O)[C@H](CC(C)C)NC1=O [Compound 7, Ac-EALRRRI$LCA$HHST-NH2] (Ac-EALRRRI[S5]LCA[S5]HHST-NH2; staple 8-12)	11.5 µM
CC[C@@H]1NC(=O)[C@H](CC(C)C)NC(=O)[C@@](C)(NC(=O)[C@@H](NC(=O)[C@H](CCCNC(=N)N)NC(=O)[C@H](CCCNC(=N)N)NC(=O)[C@H](CCCNC(=N)N)NC(=O)[C@H](CC(C)C)NC(=O)[C@H](C)NC(=O)[C@H](CCCNC(=N)N)NC(C)=O)[C@@H](C)CC)CCCC=CCCC[C@@](C)(C(=O)N[C@@H](Cc2c[nH]cn2)C(=O)N[C@@H](Cc2c[nH]cn2)C(=O)N[C@@H](CO)C(=O)N[C@H](C(N)=O)[C@@H](C)O)NC(=O)[C@H](C)NC1=O [Compound 31, Ac-RALRRRI$LAbuA$HHST-NH2] (Ac-RALRRRI[S5]L[Abu]A[S5]HHST-NH2; staple 8-12)	3.7 µM
CC[C@H](C)[C@@H]1NC(=O)[C@H](CCCNC(=N)N)NC(=O)[C@H](CCCNC(=N)N)NC(=O)[C@@](C)(NC(=O)[C@H](CC(C)C)NC(=O)[C@H](CCC(=O)O)NC(=O)[C@H](CCCNC(=N)N)NC(C)=O)CCCC=CCCC[C@@](C)(C(=O)N[C@@H](CC(C)C)C(=O)N[C@@H](CS)C(=O)N[C@@H](CCCNC(=N)N)C(=O)N[C@@H](CCCNC(=N)N)C(=O)N[C@@H](Cc2c[nH]cn2)C(=O)N[C@@H](Cc2c[nH]cn2)C(=O)N[C@@H](CO)C(=O)N[C@H](C(N)=O)[C@@H](C)O)NC1=O [Compound 8, Ac-REL$RRI$LCRRHHST-NH2] (Ac-REL[S5]RRI[S5]LCRRHHST-NH2; staple 4-8)	11.5 µM
CC[C@H](C)[C@H](NC(=O)[C@H](CCCNC(=N)N)NC(=O)[C@H](CCCNC(=N)N)NC(=O)[C@H](CCCNC(=N)N)NC(=O)[C@H](CC(C)C)NC(=O)[C@H](CCCNC(=N)N)NC(=O)[C@H](CCC(=O)O)NC(C)=O)C(=O)N[C@@H](CCC(=O)O)C(=O)N[C@@H](CC(C)C)C(=O)N[C@@H](CS)C(=O)N[C@@H](CCCNC(=N)N)C(=O)N[C@@H](CCCNC(=N)N)C(=O)N[C@@H](Cc1c[nH]cn1)C(=O)N[C@@H](Cc1c[nH]cn1)C(=O)N[C@@H](CO)C(=O)N[C@H](C(N)=O)[C@@H](C)O [Compound 2, Ac-ERLRRRIELCRRHHST-NH2] (Ac-ERLRRRIELCRRHHST-NH2)	> 20 µM
CC[C@H](C)[C@H](NC(=O)[C@H](CCCNC(=N)N)NC(=O)[C@H](CCCNC(=N)N)NC(=O)[C@H](CCCNC(=N)N)NC(=O)[C@H](CC(C)C)NC(=O)[C@H](C)NC(C)=O)C(=O)N[C@@]1(C)CCCC=CCCC[C@@](C)(C(=O)N[C@@H](Cc2c[nH]cn2)C(=O)N[C@@H](Cc2c[nH]cn2)C(=O)N[C@@H](CO)C(=O)N[C@H](C(N)=O)[C@@H](C)O)NC(=O)[C@H](C)NC(=O)[C@H](C)NC(=O)[C@H](CC(C)C)NC1=O [Compound 20, Ac-ALRRRI$LAA$HHST-NH2] (Ac-ALRRRI[S5]LAA[S5]HHST-NH2; staple 7-11)	≥ 24.4 µM
CC[C@H](C)[C@H](NC(=O)[C@H](CCCNC(=N)N)NC(=O)[C@H](CCCNC(=N)N)NC(=O)[C@H](CCCNC(=N)N)NC(=O)[C@H](CC(C)C)NC(=O)[C@H](CCCNC(=N)N)NC(=O)[C@H](CCC(=O)O)NC(C)=O)C(=O)N[C@@H](CCC(=O)O)C(=O)N[C@@H](CC(C)C)C(=O)N[C@@H](C)C(=O)N[C@@H](C)C(=O)N[C@@H](CCCNC(=N)N)C(=O)N[C@@H](Cc1c[nH]cn1)C(=O)N[C@@H](Cc1c[nH]cn1)C(=O)N[C@@]1(C)CCCC=CCCC[C@@](C)(C(=O)N[C@@H](CCCNC(=N)N)C(=O)N[C@@H](Cc2ccc(O)cc2)C(=O)N[C@@H](CCC(=O)O)C(=O)N[C@@H](C)C(=O)N[C@H](C(N)=O)C(C)C)NC(=O)[C@H](CCC(=O)O)NC(=O)[C@H](C)NC(=O)[C@H]([C@@H](C)O)NC1=O [Compound 22, Ac-ERLRRRIELAARHH$TAE$RYEAV-NH2] (Ac-ERLRRRIELAARHH[S5]TAE[S5]RYEAV-NH2; staple 15-19)	> 20 µM
CC[C@H](C)[C@H](NC(=O)[C@H](CCCNC(=N)N)NC(=O)[C@H](CCCNC(=N)N)NC(=O)[C@H](CCCNC(=N)N)NC(=O)[C@H](CC(C)C)NC(=O)[C@H](C)NC(C)=O)C(=O)N[C@@H](CCC(=O)O)C(=O)N[C@@H](CC(C)C)C(=O)N[C@@H](C)C(=O)N[C@@H](C)C(=O)N[C@@H](CCCNC(=N)N)C(=O)N[C@@H](Cc1c[nH]cn1)C(=O)N[C@@H](Cc1c[nH]cn1)C(=O)N[C@@]1(C)CCCC=CCCC[C@@](C)(C(=O)N[C@@H](CCCNC(=N)N)C(=O)N[C@@H](Cc2ccc(O)cc2)C(=O)N[C@@H](CCC(=O)O)C(=O)N[C@@H](C)C(=O)N[C@H](C(N)=O)C(C)C)NC(=O)[C@H](CCC(=O)O)NC(=O)[C@H](C)NC(=O)[C@H]([C@@H](C)O)NC1=O [Compound 24, Ac-ALRRRIELAARHH$TAE$RYEAV-NH2] (Ac-ALRRRIELAARHH[S5]TAE[S5]RYEAV-NH2; staple 14-18)	> 20 µM
CC[C@H](C)[C@H](NC(=O)[C@H](CCCNC(=N)N)NC(=O)[C@H](CCCNC(=N)N)NC(C)=O)C(=O)N[C@@H](CCC(=O)O)C(=O)N[C@@H](CC(C)C)C(=O)N[C@@H](C)C(=O)N[C@@H](CCCNC(=N)N)C(=O)N[C@@H](CCCNC(=N)N)C(=O)N[C@@]1(C)CCCC=CCCC[C@@](C)(C(=O)N[C@@H](CCC(=O)O)C(=O)N[C@@H](C)C(=O)N[C@@H](CCCNC(=N)N)C(=O)N[C@@H](Cc2ccc(O)cc2)C(=O)N[C@@H](CCC(=O)O)C(=O)N[C@@H](C)C(=O)N[C@H](C(N)=O)C(C)C)NC(=O)[C@H]([C@@H](C)O)NC(=O)[C@H](CO)NC(=O)[C@H](Cc2c[nH]cn2)NC1=O [Compound 18, Ac-RRIELARR$HST$EARYEAV-NH2] (Ac-RRIELARR[S5]HST[S5]EARYEAV-NH2; staple 9-13)	> 20 µM
CC[C@H](C)[C@H](NC(=O)[C@H](CCCNC(=N)N)NC(=O)[C@H](CCCNC(=N)N)NC(=O)[C@H](CCCNC(=N)N)NC(=O)[C@H](CC(C)C)NC(=O)[C@H](CCCNC(=N)N)NC(=O)[C@H](CCC(=O)O)NC(C)=O)C(=O)N[C@@]1(C)CCCC=CCCC[C@@](C)(C(=O)N[C@@H](Cc2c[nH]cn2)C(=O)N[C@@H](Cc2c[nH]cn2)C(=O)N[C@@H](CO)C(=O)N[C@H](C(=O)N[C@@H](CS)C(=O)N[C@@H](CCC(=O)O)C(=O)N[C@@H](C)C(=O)N[C@@H](CCCNC(=N)N)C(=O)N[C@@H](Cc2ccc(O)cc2)C(=O)N[C@@H](CCC(=O)O)C(=O)N[C@@H](C)C(=O)N[C@H](C(N)=O)C(C)C)[C@@H](C)O)NC(=O)[C@H](CCCNC(=N)N)NC(=O)[C@H](CS)NC(=O)[C@H](CC(C)C)NC1=O [Compound 15, Ac-ERLRRRI$LCR$HHSTCEARYEAV-NH2] (Ac-ERLRRRI[S5]LCR[S5]HHSTCEARYEAV-NH2; staple 8-12)	2.2 µM
